# Patent US11274332B2, “Methods of administering 3,4-diaminopyridine” (SERB SA, priority 2011, dated 2022)
# “And” between values parts separate entries of the source, which are not always exact repeats. Equal values may be shown once.
# Experiment: Food-effect crossover study, adverse events after single 20 mg amifampridine phosphate in healthy subjects (Examples 10, 11)
# Format: in vivo
# Method: This was a randomized, open-label, 2-treatment, 2-period crossover study with 44 completed subjects to assess the safety, tolerability, and the effect of food on the relative bioavailability of a single dose of amifampridine phosphate.
# Safety was evaluated for all subjects who take at least one dose of 3,4-DAP. Safety was evaluated by recording the incidence of adverse events (AEs), physical examination, vital signs, concomitant medications, clinical laboratory assessments, and 12-lead electrocardiogram (ECG).
# Analysis for the following safety parameters was carried out on the Safety Population: AEs which included all AEs, AEs by severity, drug-related AEs, deaths, SAEs, AEs leading to study discontinuation, and most frequent AEs, standard clinical laboratory tests, vital signs, ECG measurements, routine physical examinations, and prior and concomitant medications. The cut-off for frequency of AEs reported was determined based on the data. No formal statistical testing was performed for the safety analyses; only descriptive statistics were provided. Appropriate descriptive statistics for the safety data were determined using SAS Version 9.2.
# AEs were coded according to the Medical Dictionary for Regulatory Activities (MedDRA; Version 13.0). […] The occurrence of AEs was assessed continuously from the time the subject signed the VID and consent. The reporting period for non-serious AEs was from the first dose to the final study visit. The investigator determined the severity of each event and the relationship of an AE to the IP and recorded it on the source documents and AE CRF. The nature, time of onset, duration, severity, and relationship to study drug was documented, including documentation of investigator assessment and review. All events were assessed to determine if the AE was serious.
# The Investigator determined the severity of each event and the event was recorded on the source documents and AE CRF. A coding of “mild” meant there was no limitation of usual activities, “moderate” meant there was some limitation of usual activities, “severe” meant there was an inability to carry out usual activities.
# The reporting period for AEs that met the criteria of an SAE began from the time of signing the VID and consent form through follow-up or early termination. […] Clinical Laboratory Assessments
structure (smiles),measurement,setting,value
"Nc1ccncc1N.O=P(O)(O)O [amifampridine phosphate, 3,4-diaminopyridine phosphate]","Diarrhoea, drug-related AE: % of subjects",Fed N=46,(0%) [0]
same,"Diarrhoea, drug-related AE: events",Fed N=46,(0%) [0]
same,"Diarrhoea, drug-related AE: subjects",Fed N=46,0
same,Discontinued due to adverse events: % of subjects,Fed N=46,2%
same,Discontinued due to adverse events: events,Fed N=46,1
same,Discontinued due to adverse events: subjects,Fed N=46,1
same,"Dizziness, drug-related AE: % of subjects",Fed N=46,4%
same,"Dizziness, drug-related AE: events",Fed N=46,2
same,"Dizziness, drug-related AE: subjects",Fed N=46,2
same,"Dysgeusia, drug-related AE: % of subjects",Fed N=46,4%
same,"Dysgeusia, drug-related AE: events",Fed N=46,2
same,"Dysgeusia, drug-related AE: subjects",Fed N=46,2
same,"Fatigue, drug-related AE: % of subjects",Fed N=46,7%
same,"Fatigue, drug-related AE: events",Fed N=46,3
same,"Fatigue, drug-related AE: subjects",Fed N=46,3
same,"Feeling Hot, drug-related AE: % of subjects",Fed N=46,(0%) [0]
same,"Feeling Hot, drug-related AE: events",Fed N=46,(0%) [0]
same,"Feeling Hot, drug-related AE: subjects",Fed N=46,0
same,"Flushing, drug-related AE: % of subjects",Fed N=46,2%
same,"Flushing, drug-related AE: events",Fed N=46,1
same,"Flushing, drug-related AE: subjects",Fed N=46,1
same,"Gastrointestinal Disorders Total, drug-related AE: % of subjects",Fed N=46,4%
same,"Gastrointestinal Disorders Total, drug-related AE: events",Fed N=46,2
same,"Gastrointestinal Disorders Total, drug-related AE: subjects",Fed N=46,2
same,"General Disorders and Administration Site Conditions Total, drug-related AE: % of subjects",Fed N=46,7%
same,"General Disorders and Administration Site Conditions Total, drug-related AE: events",Fed N=46,3
same,"General Disorders and Administration Site Conditions Total, drug-related AE: subjects",Fed N=46,3
same,"Headache, drug-related AE: % of subjects",Fed N=46,2%
same,"Headache, drug-related AE: events",Fed N=46,1
same,"Headache, drug-related AE: subjects",Fed N=46,1
same,"Hypoaesthesia Facial, drug-related AE: % of subjects",Fed N=46,(0%) [0]
same,"Hypoaesthesia Facial, drug-related AE: events",Fed N=46,(0%) [0]
same,"Hypoaesthesia Facial, drug-related AE: subjects",Fed N=46,0
same,"Hypoaesthesia Oral, drug-related AE: % of subjects",Fed N=46,7%
same,"Hypoaesthesia Oral, drug-related AE: events",Fed N=46,3
same,"Hypoaesthesia Oral, drug-related AE: subjects",Fed N=46,3
same,"Hypoaesthesia, drug-related AE: % of subjects",Fed N=46,(0%) [0]
same,"Hypoaesthesia, drug-related AE: events",Fed N=46,(0%) [0]
same,"Hypoaesthesia, drug-related AE: subjects",Fed N=46,0
same,"Nausea, drug-related AE: % of subjects",Fed N=46,2%
same,"Nausea, drug-related AE: events",Fed N=46,1
same,"Nausea, drug-related AE: subjects",Fed N=46,1
same,"Nervous System Disorders Total, drug-related AE: % of subjects",Fed N=46,37%
same,"Nervous System Disorders Total, drug-related AE: events",Fed N=46,31
same,"Nervous System Disorders Total, drug-related AE: subjects",Fed N=46,17
same,"Paraesthesia Oral, drug-related AE: % of subjects",Fed N=46,28%
same,"Paraesthesia Oral, drug-related AE: events",Fed N=46,15
same,"Paraesthesia Oral, drug-related AE: subjects",Fed N=46,13
same,"Paraesthesia, drug-related AE: % of subjects",Fed N=46,15%
same,"Paraesthesia, drug-related AE: events",Fed N=46,8
same,"Paraesthesia, drug-related AE: subjects",Fed N=46,7
same,"Possibly or probably related AEs, Mild: % of subjects",Fed N=46,46%
same,"Possibly or probably related AEs, Mild: events",Fed N=46,37
same,"Possibly or probably related AEs, Mild: subjects",Fed N=46,21
same,"Possibly or probably related AEs, Moderate: % of subjects",Fed N=46,(0%) [0]
same,"Possibly or probably related AEs, Moderate: events",Fed N=46,(0%) [0]
same,"Possibly or probably related AEs, Moderate: subjects",Fed N=46,0
same,"Possibly or probably related AEs, Severe: % of subjects",Fed N=46,(0%) [0]
same,"Possibly or probably related AEs, Severe: events",Fed N=46,(0%) [0]
same,"Possibly or probably related AEs, Severe: subjects",Fed N=46,0
same,"Possibly or probably related AEs, Total: % of subjects",Fed N=46,46%
same,"Possibly or probably related AEs, Total: events",Fed N=46,37
same,"Possibly or probably related AEs, Total: subjects",Fed N=46,21
same,Serious adverse events: % of subjects,Fed N=46,(0%) [0]
same,Serious adverse events: events,Fed N=46,(0%) [0]
same,Serious adverse events: subjects,Fed N=46,0
same,"Skin and Subcutaneous Tissue Disorders Total, drug-related AE: % of subjects",Fed N=46,(0%) [0]
same,"Skin and Subcutaneous Tissue Disorders Total, drug-related AE: events",Fed N=46,(0%) [0]
same,"Skin and Subcutaneous Tissue Disorders Total, drug-related AE: subjects",Fed N=46,0
same,"Vascular Disorders Total, drug-related AE: % of subjects",Fed N=46,2%
same,"Vascular Disorders Total, drug-related AE: events",Fed N=46,1
same,"Vascular Disorders Total, drug-related AE: subjects",Fed N=46,1
same,"All treatment emergent AEs, Total: subjects","Fed N=46, phosphate",24 and 23
same,"Abdominal Pain Upper, drug-related AE: % of subjects",Female N=16,6%
same,"Abdominal Pain Upper, drug-related AE: events",Female N=16,1
same,"Abdominal Pain Upper, drug-related AE: subjects",Female N=16,1
same,"Abdominal Pain, drug-related AE: % of subjects",Female N=16,13%
same,"Abdominal Pain, drug-related AE: events",Female N=16,2
same,"Abdominal Pain, drug-related AE: subjects",Female N=16,2
same,"Abdominal Tenderness, drug-related AE: % of subjects",Female N=16,6%
same,"Abdominal Tenderness, drug-related AE: events",Female N=16,1
same,"Abdominal Tenderness, drug-related AE: subjects",Female N=16,1
same,"Acne, drug-related AE: % of subjects",Female N=16,(0%) [0]
same,"Acne, drug-related AE: events",Female N=16,(0%) [0]
same,"Acne, drug-related AE: subjects",Female N=16,0
same,"All treatment emergent AEs, Mild: % of subjects",Female N=16,75%
same,"All treatment emergent AEs, Mild: events",Female N=16,41
same,"All treatment emergent AEs, Mild: subjects",Female N=16,12
same,"All treatment emergent AEs, Moderate: % of subjects",Female N=16,13%
same,"All treatment emergent AEs, Moderate: events",Female N=16,2
same,"All treatment emergent AEs, Moderate: subjects",Female N=16,2
same,"All treatment emergent AEs, Severe: % of subjects",Female N=16,(0%) [0]
same,"All treatment emergent AEs, Severe: events",Female N=16,(0%) [0]
same,"All treatment emergent AEs, Severe: subjects",Female N=16,0
same,"All treatment emergent AEs, Total: events",Female N=16,43
same,"All treatment emergent AEs, Total: subjects",Female N=16,12
same,"Constipation, drug-related AE: % of subjects",Female N=16,6%
same,"Constipation, drug-related AE: events",Female N=16,1
same,"Constipation, drug-related AE: subjects",Female N=16,1
same,"Diarrhoea, drug-related AE: % of subjects",Female N=16,6%
same,"Diarrhoea, drug-related AE: events",Female N=16,1
same,"Diarrhoea, drug-related AE: subjects",Female N=16,1
same,Discontinued due to adverse events: % of subjects,Female N=16,(0%) [0]
same,Discontinued due to adverse events: events,Female N=16,(0%) [0]
same,Discontinued due to adverse events: subjects,Female N=16,0
same,"Dizziness, drug-related AE: % of subjects",Female N=16,25%
same,"Dizziness, drug-related AE: events",Female N=16,5
same,"Dizziness, drug-related AE: subjects",Female N=16,4
same,"Dysgeusia, drug-related AE: % of subjects",Female N=16,(0%) [0]
same,"Dysgeusia, drug-related AE: events",Female N=16,(0%) [0]
same,"Dysgeusia, drug-related AE: subjects",Female N=16,0
same,"Fatigue, drug-related AE: % of subjects",Female N=16,13%
same,"Fatigue, drug-related AE: events",Female N=16,2
same,"Fatigue, drug-related AE: subjects",Female N=16,2
same,"Feeling Hot, drug-related AE: % of subjects",Female N=16,(0%) [0]
same,"Feeling Hot, drug-related AE: events",Female N=16,(0%) [0]
same,"Feeling Hot, drug-related AE: subjects",Female N=16,0
same,"Flushing, drug-related AE: % of subjects",Female N=16,6%
same,"Flushing, drug-related AE: events",Female N=16,1
same,"Flushing, drug-related AE: subjects",Female N=16,1
same,"Gastrointestinal Disorders Total, drug-related AE: % of subjects",Female N=16,31%
same,"Gastrointestinal Disorders Total, drug-related AE: events",Female N=16,8
same,"Gastrointestinal Disorders Total, drug-related AE: subjects",Female N=16,5
same,"General Disorders and Administration Site Conditions Total, drug-related AE: % of subjects",Female N=16,13%
